Experimental data: patent US12036237B2, “Bromide source for use in treating autism spectral disorder” (INSERM (INSTITUT NATIONAL DE LA SANTE ET DE LA RECHERCHE …, priority 2016, dated 2024)
Entries after “also recorded” stand apart in the source; their conditions may differ.

Columns and labels:
Type in all cases: in vivo
Oprm1−/− mice = assay: Locomotor activity by videotracking; details: Example 2; for locomotor activity after bromide administration: 250 and 500 mg/kg
Method: (§1) Sodium bromide (anhydrous, Sigma-Aldrich, Saint-Quentin, France) dissolved in saline solution (NaCl, 0.9%) at the dose of 250 or 500 mg/kg, or vehicle (NaCl, 0.9%), was administered intraperitoneally once a day for 19 days in a volume of 20 ml/kg. On testing days, bromide was administered 30 min before behavioural assays. Bumetanide (Tocris, provided by Bio-Techne, Lille, France) dissolved in NaCl 0.9% at the dose of 0.5 mg/kg (Deidda et al, 2015) or vehicle was administered intraperitoneally once a day for 19 days in a volume of 20 ml/kg.
Locomotor activity. Locomotor activity was assessed in clear cages (21×11×17 cm) placed over a white Plexiglas infrared-lit platform. Light intensity of the room was set at 15 lx. The trajectories of the mice were analyzed and recorded via an automated tracking system equipped with an infrared-sensitive camera (Videotrack; View Point, Lyon, France). To focus on forward activity, only movements which speed was over 6 cm/s were taken into account for the measure of locomotor activity. Behavioral testing started when the animals were placed in the activity boxes for a 30 min-habituation period. They were then injected with either vehicle or sodium bromide (250 or 500 mg/kg) and locomotor activity was monitored for further 90 min.

Fmr1−/− mice = assay: Novelty-suppressed feeding test; details: bromide 250 mg/kg i.p. daily
Method: as §1
(§2) Behavioural assays started after a week of daily bromide (or bumetanide) treatment.
(§3) Novelty-suppressed feeding. […] Immediately after an eating event, the mouse was transferred back to the home cage (free from cage-mates) and allowed to feed on lab chow for 5 min.

Shank3B−/− mice = assay: Novelty-suppressed feeding test; details: bromide 250 mg/kg i.p. daily
Method: as §1, §2, §3

[Br-].[Na+] [bromide, Sodium bromide]
locomotor activity during the habituation run (Oprm1−/− mice; chronically treated animals, males since 250 mg/kg, females only at 500 mg/kg): higher
locomotor activity after bromide administration (Oprm1−/− mice; controls (wild-type)): not modified in controls at 250 mg/kg and was increased at 500 mg/kg; also recorded: at the dose of 500 mg/kg only
locomotor activity (overall) (Oprm1−/− mice; mice, bromide 250 mg/kg, males more sensitive): increases
locomotor activity after bromide administration (Oprm1−/− mice; mutant (KO) animals): increased in mutant animals at the dose of 250 mg/kg, but not at 500 mg/kg; also recorded: increased activity
food intake back in the home cage (Fmr1−/− mice; Fmr1 line): did not modify
exacerbated anxiety (overall) (Fmr1−/− mice; Fmr1−/− mice): can reduce
feeding latency (Fmr1−/− mice; Fmr1−/− mice): reduced the feeding latency to wild-type level; also recorded: decreased
food intake back in the home cage (Shank3B−/− mice; Shank3B mutants): did not rescued
exacerbated anxiety (overall) (Shank3B−/− mice; Shank3B−/− mice): can reduce
feeding latency (Shank3B−/− mice; Shank3B−/− mice): normalized
